Values of other authors in patent publication US7618664B2 (Cooperatieve Verkoop-en Productievereniging Van …, priority 2001, dated 2009).

Settings: human body

With calcium gluconate as the substance, how does the toxicity read?
The toxicity was “essentially not show any toxicity”.
